Data taken from patent US20240199651A1, “ANTIBACTERIAL COMPOUNDS” (JANSSEN SCIENCES IRELAND UNLIMITED COMPANY, priority 2021, published 2024).
Like-named read-outs stand apart in the source and are kept apart here.

Assay: Mitochondrial toxicity (Glu/Gal) assay
Assay type: cell-based
Settings: for Score: mitotoxicity score, Glu/Gal assay; for Δ IC50, glu/IC50, gal: ratio IC50 glu / IC50 gal
From the text: The compounds of the invention/examples may have advantages associated with in vitro potency, kill kinetics (i.e. bactericidal effect) in vitro, PK properties, food effect, safety/toxicity (including liver toxicity, coagulation, 5-LO oxygenase), metabolic stability, Ames II negativity, MNT negativity, aqueous based solubility (and ability to formulate) and/or cardiovascular effect e.g. on animals (e.g. anesthetized guinea pig). Data that is generated/calculated may be obtained using standard methods/assays, for instance that are available in the literature or which may be performed by a supplier (e.g. Microsomal Stability Assay—Cyprotex, Mitochondrial toxicity (Glu/Gal) assay—Cyprotex, as well as literature CYP cocktail inhibition assays). GSH can be measured (reactive metabolites, glucuronidation) to observe if a dihydrodiol is observed by LCMS (fragmentation ions), which would correspond to a dihydroxylation on the core heterocycle.

[1] = galactose medium (Glu/Gal mitotoxicity assay), read-out: IC50, gal
[2] = glucose medium (Glu/Gal mitotoxicity assay), read-out: IC50, glu

| Structure (SMILES) | Score | Δ IC50, glu/IC50, gal | IC50 (read-out: IC50, gal) | IC50 (read-out: IC50, glu) | IC50 [1] | IC50 [2] |
| --- | --- | --- | --- | --- | --- | --- |
| CCc1nc2nc(C)c(C)cn2c1C(=O)NCc1ccc(-c2nc3n(n2)CCN(S(=O)(=O)C(F)(F)F)C3)cc1 [Compound 33] | [x]1 | <0.98 | > 200 µM | 196 µM | – | – |
| Cc1ccc2nc(C)c(C(=O)NCc3ccc(-c4nc5n(n4)CCN(S(=O)(=O)C(F)(F)F)C5)cc3)n2c1 [Compound 34] | [x]0 | >1.13 | 44.2 µM | > 50 µM | – | – |
| CCc1nc2ccc(C(C)C)cn2c1C(=O)NCc1ccc(-c2nc3n(n2)CCN(S(=O)(=O)C(F)(F)F)C3)cc1 [Compound 35] | [x]0 | >1.25 | 40.1 µM | > 50 µM | – | – |
| CCc1nc2sc(C)cn2c1C(=O)NCc1ccc(-c2nc3n(n2)CCN(S(=O)(=O)C(F)(F)F)C3)cc1 [Compound 36] | [x]0 | >1.26 | 79.5 µM | > 100 µM | – | – |
| CCc1nc2ncc(C)cn2c1C(=O)NCc1ccc(-c2nc3n(n2)CCNC3)cc1 [Compound 37] | – | – | – | – | > 200 µM | > 200 µM |
| Cc1nc2sc(Cl)cn2c1C(=O)NCc1ccc(-c2nc3n(n2)CCN(S(=O)(=O)C(F)(F)F)C3)cc1 [Compound 38] | [x]3 | >11.52 | 8.68 µM | > 100 µM | – | – |
| CCc1nc2ncc(C)cn2c1C(=O)NCc1ccc(-c2nc3n(n2)CCN(C(C)=O)C3)cc1 [Compound 40] | – | – | – | – | > 200 µM | > 200 µM |
| CCc1nc2ncc(C)cn2c1C(=O)NCc1ccc(-c2nc3n(n2)CCN(S(=O)(=O)N(C)C)C3)cc1 [Compound 41] | – | – | – | – | > 200 µM | > 200 µM |
| CCc1nc2ncc(C)cn2c1C(=O)NCc1ccc(-c2nc3n(n2)CCN(C(=O)C(F)(F)F)C3)cc1 [Compound 43] | – | – | – | – | > 200 µM | > 200 µM |
| CCc1nc2nc3c(cn2c1C(=O)NCc1ccc(-c2nc4n(n2)CCN(S(=O)(=O)C(F)(F)F)C4)cc1)CCC3 [Compound 45] | – | – | – | – | > 100 µM | > 100 µM |
| CCc1nc2ccc(C)cn2c1C(=O)NCc1ccc(-c2nc3n(n2)CCN(C(C)=O)C3)cc1 [Compound 46] | – | – | – | – | > 200 µM | > 200 µM |
| CCc1nc2ccc(C)cn2c1C(=O)NCc1ccc(-c2nc3n(n2)CCN(S(=O)(=O)N2CCCC2)C3)cc1 [Compound 48] | – | – | – | – | > 200 µM | > 200 µM |
| CCc1nc2ncc(C)cn2c1C(=O)NCc1ccc(-c2nc3n(n2)CCN(C)C3)cc1 [Compound 50] | – | – | – | – | > 200 µM | > 200 µM |
| CCc1nc2ccc(C)cn2c1C(=O)NCc1ccc(-c2nc3n(n2)CCN(S(=O)(=O)N(C)C)C3)cc1 [Compound 51] | – | – | – | – | > 200 µM | > 200 µM |
| CCc1nc2ccc(C)cn2c1C(=O)NCc1ccc(-c2nc3n(n2)CCNC3)cc1 [Compound 52] | – | – | – | – | > 200 µM | > 200 µM |
| CCc1nc2ccc(C)cn2c1C(=O)NCc1ccc(-c2nc3n(n2)CCN(C(=O)C(F)(F)F)C3)cc1 [Compound 53] | – | – | – | – | > 200 µM | > 200 µM |
| CCc1nc2ncc(C)cn2c1C(=O)NCc1ccc(-c2nc3n(n2)CCN(CCOC)C3)cc1 [Compound 54] | – | – | – | – | > 200 µM | > 200 µM |
| CCc1nc2ccc(C)cn2c1C(=O)NCc1ccc(-c2nc3n(n2)CCN(CCOC)C3)cc1 [Compound 55] | [x]1 | >1.15 | 174 µM | > 200 µM | – | – |
| CCc1nc2ccc(C)cn2c1C(=O)NCc1ccc(-c2nc3n(n2)CCN(C)C3)cc1 [Compound 56] | – | – | – | – | > 200 µM | > 200 µM |
| CCc1nc2ncc(C)cn2c1C(=O)NCc1ccc(-c2nc3n(n2)CCN(S(=O)(=O)C(F)(F)F)C3)s1 [Compound 57] | – | – | – | – | > 200 µM | > 200 µM |
| CCc1nc2ncc(C)cn2c1C(=O)NCc1ccc(C2CN(c3nc4n(n3)CCN(S(=O)(=O)C(F)(F)F)C4)C2)cc1 [Compound 58] | – | >3.44 | 58.2 µM | > 200 µM | – | – |
| CCc1nc2ncc(C)cn2c1C(=O)NCc1ccc(C2CCN(c3nc4n(n3)CCN(S(=O)(=O)C(F)(F)F)C4)CC2)cc1 [Compound 59] | [x]3 | >11.38 | 17.6 µM | > 200 µM | – | – |
| CCc1nc2ncc(C)cn2c1C(=O)NCc1ccc(N2CCC(c3nc4n(n3)CCN(S(=O)(=O)C(F)(F)F)C4)CC2)cc1 [Compound 60] | – | >3.56 | 56.2 µM | > 200 µM | – | – |
| CCc1nc2ncc(C)cn2c1C(=O)NCc1ccc(-c2nc3n(n2)CCN(CCC#N)C3)cc1 [Compound 61] | – | – | – | – | > 200 µM | > 200 µM |
| CCc1nc2ccc(C)cn2c1C(=O)NCc1ccc(-c2nc3n(n2)CCN(CCC#N)C3)cc1 [Compound 62] | – | – | – | – | > 200 µM | > 200 µM |

| Structure (SMILES) | Score | Δ IC50, glu/IC50, gal | IC50 (read-out: IC50, gal) | IC50 (read-out: IC50, glu) | IC50 [1] | IC50 [2] |
| --- | --- | --- | --- | --- | --- | --- |
| CCc1nc2ncc(C)cn2c1C(=O)NCc1ncc(-c2nc3n(n2)CCN(S(=O)(=O)C(F)(F)F)C3)s1 [Compound 64] | – | – | – | – | > 200 µM | > 200 µM |
| CCc1nc2n(c1C(=O)NCc1ccc(-c3nc4n(n3)CCN(S(=O)(=O)C(F)(F)F)C4)cc1)CCN(C)C2 [Compound 65] | – | – | – | – | > 200 µM | > 200 µM |
| CCc1nc2ncc(C)cn2c1C(=O)NCc1cccc(-c2nc3n(n2)CCN(S(=O)(=O)C(F)(F)F)C3)c1 [Compound 67] | [x]1 | >1.34 | 149 µM | > 200 µM | – | – |
| CCc1nc2ncc(C)cn2c1C(=O)NCc1ccc(C2CCN(c3nc4n(n3)CCN(S(=O)(=O)C(F)(F)F)C4)C2)cc1 (stereo not shown) [Compound 69] | [x]3 | 11.37 | 15.3 µM | 174 µM | – | – |
| CCc1nc2ncc(C)cn2c1C(=O)NCc1ccc(N2CCN(c3nc4n(n3)CCN(S(=O)(=O)C(F)(F)F)C4)CC2)cc1 [Compound 70] | – | – | > 50 µM | > 50 µM | – | – |
| CCc1nc2ncc(C)cn2c1C(=O)NCc1csc(-c2nc3n(n2)CCN(S(=O)(=O)C(F)(F)F)C3)n1 [Compound 73] | – | – | > 200 µM | > 200 µM | – | – |
| CCc1nc2ncc(C)cn2c1C(=O)NCc1nc(-c2nc3n(n2)CCN(S(=O)(=O)C(F)(F)F)C3)cs1 [Compound 75] | – | – | > 200 µM | > 200 µM | – | – |
| CCc1nc2ncc(C)cn2c1C(=O)NCc1nnc(-c2nc3n(n2)CCN(S(=O)(=O)C(F)(F)F)C3)s1 [Compound 76] | – | – | > 200 µM | > 200 µM | – | – |
| CCc1nc2ncc(Cl)cn2c1C(=O)NCc1cnc(-c2nc3n(n2)CCN(S(=O)(=O)C(F)(F)F)C3)c(F)c1 [Compound 77] | – | – | > 200 µM | > 200 µM | – | – |
| CCc1nc2cc(N)c(Cl)cn2c1C(=O)NCc1cnc(-c2nc3n(n2)CCN(S(=O)(=O)C(F)(F)F)C3)c(F)c1 [Compound 78] | – | – | > 200 µM | > 200 µM | – | – |
| CCc1nc2ncc(C)cn2c1C(=O)NC(C)(C)c1ccc(-c2nc3n(n2)CCN(S(=O)(=O)C(F)(F)F)C3)cc1 [Compound 83] | [x]1 | 1.12 | 127 µM | 142 µM | – | – |
| CCc1nc2ncc(C)cn2c1C(=O)NCc1ccc(-c2cn3c(n2)CN(S(=O)(=O)C(F)(F)F)CC3)cc1 [Compound 89] | – | – | – | – | > 200 µM | > 200 µM |
| CCc1nc2ncc(Cl)cn2c1C(=O)NCc1ccc(-c2cn3c(n2)CN(S(=O)(=O)C(F)(F)F)CC3)cc1 [Compound 90] | – | – | – | – | > 200 µM | > 200 µM |
| CCc1nc2ncc(Cl)cn2c1C(=O)NCc1ccc(-c2cc3n(n2)CCN(S(=O)(=O)C(F)(F)F)C3)cc1 [Compound 91] | [x]3 | >12.85 | 15.6 µM | > 200 µM | – | – |
| Cc1cnc2nc(C3CC3)c(C(=O)NCc3ccc(-c4cc5n(n4)CCN(S(=O)(=O)C(F)(F)F)C5)cc3)n2c1 [Compound 93] | – | – | – | – | > 200 µM | > 200 µM |
| CCc1nc2ncc(C)cn2c1C(=O)NCc1cccc(Cc2cc3n(n2)CCN(S(=O)(=O)C(F)(F)F)C3)c1 [Compound 95] | [x]1 | >1.7 | 117 µM | > 200 µM | – | – |
| CC(=O)N1CCn2nc(-c3ccc(CNC(=O)c4c(C5CC5)nc5ncc(C)cn45)cc3)cc2C1 [Compound 96] | – | – | – | – | > 200 µM | > 200 µM |
| Cc1cnc2nc(C3CC3)c(C(=O)NCc3ccc(-c4nc5n(n4)CCN(S(=O)(=O)C(F)(F)F)C5)c(F)c3)n2c1 [Compound 97] | – | – | – | – | > 25 µM | > 25 µM |
| Cc1cnc2nc(C3CC3)c(C(=O)NCc3ccc(-c4cc5n(n4)CCN(S(C)(=O)=O)C5)cc3)n2c1 [Compound 99] | – | – | – | – | > 200 µM | > 200 µM |
| Cc1cnc2nc(C3CC3)c(C(=O)NCc3ccc(-c4cc5n(n4)CCN(C)C5)cc3)n2c1 [Compound 100] | – | – | – | – | > 200 µM | > 200 µM |
| COCCN1CCn2nc(-c3ccc(CNC(=O)c4c(C5CC5)nc5ncc(C)cn45)cc3)cc2C1 [Compound 101] | – | – | – | – | > 200 µM | > 200 µM |
| Cc1cnc2nc(C3CC3)c(C(=O)NCc3ccc(-c4nn5c(c4C)CN(S(=O)(=O)C(F)(F)F)CC5)cc3)n2c1 [Compound 102] | [x]3 | >6.69 | 29.9 µM | > 200 µM | – | – |
| O=C(NCc1ccc(-c2nc3n(n2)CCN(S(=O)(=O)C(F)(F)F)C3)cc1)c1c(C2CC2)nc2ncc(Cl)cn12 [Compound 103] | [x]0 | >1.3 | 38.6 µM | > 50 µM | – | – |
| Cc1cnc2nc(C3CC3)c(C(=O)NCc3ccc(-c4cc5n(n4)CCN(CC(F)(F)F)C5)cc3)n2c1 [Compound 107] | [x]0 | >1.13 | 44.2 µM | > 50 µM | – | – |
